Assay [1] deals with rats. Particulars: ICV, equimolar to oleic acid; cited from earlier work.
Assay [2] has as its target T1, hypothalamic CPT1 (Rattus norvegicus, UniProt P32198).
T1 sequence (P32198 1-773): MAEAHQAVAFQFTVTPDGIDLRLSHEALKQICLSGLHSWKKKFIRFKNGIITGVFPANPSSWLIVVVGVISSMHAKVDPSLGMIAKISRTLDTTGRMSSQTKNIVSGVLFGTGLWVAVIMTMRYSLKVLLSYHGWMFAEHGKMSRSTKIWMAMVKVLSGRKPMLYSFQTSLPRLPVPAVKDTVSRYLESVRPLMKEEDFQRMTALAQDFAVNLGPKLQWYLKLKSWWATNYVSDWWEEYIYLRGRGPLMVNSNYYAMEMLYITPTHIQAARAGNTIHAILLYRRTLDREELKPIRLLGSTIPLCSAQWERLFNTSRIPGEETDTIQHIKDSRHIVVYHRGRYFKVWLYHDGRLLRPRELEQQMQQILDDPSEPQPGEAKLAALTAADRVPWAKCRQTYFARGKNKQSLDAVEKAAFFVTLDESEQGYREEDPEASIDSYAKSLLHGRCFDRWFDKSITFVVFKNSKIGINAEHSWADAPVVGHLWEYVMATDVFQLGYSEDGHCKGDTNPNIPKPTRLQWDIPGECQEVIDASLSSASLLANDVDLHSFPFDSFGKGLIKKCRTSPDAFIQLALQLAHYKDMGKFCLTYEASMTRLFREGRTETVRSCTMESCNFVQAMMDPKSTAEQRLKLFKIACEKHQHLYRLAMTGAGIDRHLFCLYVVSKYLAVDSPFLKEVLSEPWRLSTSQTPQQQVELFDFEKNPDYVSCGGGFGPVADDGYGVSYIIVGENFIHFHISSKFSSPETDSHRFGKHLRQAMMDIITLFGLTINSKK
In words: Food intake after ICV bolus of CPT1 antagonists. Set-up: CPT1 activity was measured in the particulate fraction of protein extracts from animals treated with ICV control injections; from tissue; host or cells: hypothalamus (arcuate nucleus) of male Sprague-Dawley rats, in vivo or ex vivo. Particulars: single ICV injection. In kind it is in vivo. The method, then:
Hypothalamic inhibition of CPT1 decreases food intake. First we examined whether central administration of molecular and pharmacological antagonists of CPT1 modulates feeding behavior in conscious rats (FIG. 3). […] Food intake was monitored in metabolic cages before and up to 72 h after the ICV injections (Obici et al., 2002a). […] The marked effect of ICV CPT1L-Ribo on food intake was significant when compared with either control vector or with an unrelated control ribozyme (FIG. 3c). […] The anorectic effect of central CPT1 inhibition lasted for at least 48 h following a single ICV administration. These decreases in food intake were significant compared with both baseline and vehicle/control (FIG. 3a-e). The changes from baseline induced by CPT1 inhibition were statistically significant at 24 h (−17.6±2.0 g and −12.4±3.9 g), and 48 h (−13.4±1.8 g and −7.8±3.8 g) following ICV administration of CP1L-Ribo and high dose ST 1326, respectively (FIGS. 3b and e). This represented a ˜50% decrease in daily food intake, which returned toward baseline values by 72 h.
(§1) Animal preparation for in vivo experiments. We studied ninety-three 10-week old male Sprague-Dawley rats (Charles River Breeding Laboratories, Wilmington, Mass.). Rats were housed in individual cages and subjected to a standard light-dark cycle. Three weeks prior to the in vivo studies, we placed a chronic catheter in the third cerebral ventricle by stereotaxic surgery (Obici et al., 2002a; Obici et al., 2001; Liu et al., 1998). One week before the pancreatic-insulin clamp protocols, we placed additional catheters in the right internal jugular and left carotid artery (Obici et al., 2001; Liu et al., 1998). All ICV solutions were dissolved in artificial cerebral spinal fluid (aCSF). Food intake was monitored daily.
Effect of central inhibition of CPT1 and food intake. We examined the effects of ICV CPT1L-Ribo and ST 1326 on food intake. Three-hours before the start of the dark cycle, CPT1L-Ribo or vector control, ST 1326 or ST 1340 was injected as a bolus via indwelling catheters implanted in the third cerebral ventricle. In the feeding studies, rats received a single bolus injection of 25 pmoles of ST1340 or two different doses (5 and 25 pmoles) of ST1326. Rats were adapted to the metabolic cages and their daily food intake had been constant (changes <10%) for a minimum of three consecutive days preceding the ICV injections. Food intake was continuously monitored for the following 72 h.

The target of assay [3] is T1, hypothalamic CPT1. In words: ICV infusion with pancreatic-insulin clamp, glucose kinetics (Example 1). The assay is classed as in vivo. Set-up: CPT1 activity was measured in the particulate fraction of protein extracts from animals treated with ICV control injections; from tissue; host or cells: hypothalamus (arcuate nucleus) of male Sprague-Dawley rats, in vivo or ex vivo; Insulin (iU/ml): unit not given here. Particulars: for Food Intake: measured prior to acute ICV infusion, except CPT1L-Ribo group (3 days after ICV). The method, then: Hypothalamic inhibition of CPT1 inhibits glucose production. Experiments were also designed to examine the effect of central inhibition of CPT-1 on whole body insulin action (FIG. 4a,b). Insulin action was assessed by a combination of ICV infusions with systemic pancreatic-insulin clamp studies (FIG. 4b). In these studies, the daily food intake was matched in the rats receiving ICV vector and ICV CPT1L-Ribo (Table 1). All rats also received an intra-arterial infusion of [3-^3H]-glucose for the last 4 hr of ICV infusion and a pancreatic/insulin clamp (insulin 1 mU/kg.min; somatostatin 3 μg/kg/min) during the last 2 hr of the study (Obici et al., 2002a; Obici et al., 2001). As expected in the presence of ˜basal circulating insulin levels (clamp procedure; Table 1), the rate of glucose infusion (GIR) required to maintain euglycemia was marginal in ICV control studies (vector-ST1340- or vehicle-infused animals; ˜0.8 mg/kg/min). By contrast, following ICV infusion of inhibitors of CPT-1 expression or activity glucose had to be infused at the rate of ˜5 mg/kg/min in order to prevent hypoglycemia. Thus, central inhibition of CPT-1 activity in the presence of fixed and basal insulin concentrations stimulates insulin action on glucose homeostasis.
as §1
Measurements of in vivo glucose kinetics and pancreatic-insulin clamp procedure. The infusion studies lasted a total of 360 min (FIG. 3a). Briefly, at t=0 min a primed-continuous ICV infusion of either CPT1 inhibitors or control solution was initiated and maintained for the remainder of the study. 2-tetradecylglydate (TDGA, a gift from Dr. Manuel Guzman) was dissolved in DMSO, diluted into aCSF (Harvard Apparatus) and infused ICV at a rate of 50 pmoles/hr. […] Prior to the pancreatic-insulin clamp studies, rats receiving ICV injection of either CPT1L-Ribo or vector control three days prior to the clamp procedure were randomized into two pair-fed experimental groups. A primed-continuous infusion of HPLC-purified [3-^3H]-glucose (New England Nuclear, Boston, Mass.; 40 μCi bolus, 0.4 μCi/min) was started at t=120 min and continued for the duration of the study (Obici et al., 2002a; Obici et al., 2001; Liu et al., 1998). Finally, a pancreatic-insulin clamp (Obici et al., 2002a; Obici et al., 2001; Liu et al., 1998) was initiated at t=240 min and lasted for 2 hours. This procedure involved the infusion of somatostatin (3 μg/kg/min), insulin (1 mU/kg/min), and glucose as needed to prevent hypoglycemia, or antibodies against C peptide (Linco) and Melanocortin Receptor type 2 (Chemicon). The rate of insulin infusion was designed to replace normal basal levels in postabsorptive rats.
Radioactivity of [^3H]glucose in plasma was measured from supernatants of Ba(OH)2 and ZnSO4 precipitates after evaporation to dryness for the removal of tritiated water (Somogyi pellet). The specific activity of tritiated water in plasma (Somogyi filtrate) was determined from the total counts of the protein-free supernatant before and after evaporation to dryness. Under steady state conditions for plasma glucose concentration, the rate of glucose disappearance (Rd) equals the rate of glucose appearance (Ra). […]

Assay [4] deals with KATP. In words: IV lipid infusion with ICV glybenclamide or hepatic vagotomy, pancreatic clamp (Example 4). The assay is classed as in vivo, rat. Particulars: near basal insulin (~27 μU/ml), groups S+ICVG, IL+ICVC. The procedure:
Hepatic “Autoregulation” in Response to Lipid Infusion Requires Central Stimulation of K-channels (KATP) and Liver Vagal Innervation. […] Since the administration of the LCFA oleic acid in the third cerebral ventricle (ICV) inhibits GP via stimulation of KATP, here we test the hypotheses that: 1) the central activation of KATP by LCFAs restrains GP during lipid infusions, and 2) that this effect requires hepatic vagal input. To this end, 5 h fasted S-D rats were randomized to receive: IV Intralipid+heparin (IL) (increased LCFA levels by ˜3 fold) or saline (S) in combination with ICV Glybenclamide (G) [inhibitor of KATP] or vehicle (C) for 6 h. All rats also received IV infusions of [3-^3H]-glucose for the last 4 h and [U-^14C]-lactate for the last 10 min of the ICV infusion and a pancreatic clamp during the last 2 h of each study. During the clamp period, in the presence of near basal insulin levels (˜27 μU/ml), GP (˜6 mg/kg.min) was unchanged in S+ICVC, S+ICVG or IL+ICVC. […] To examine whether the central effects of LCFA on GP are mediated by vagal stimulation, we next repeated the lipid infusion studies in rats with selective hepatic vagotomy (HV). During the pancreatic clamp period, GP (˜6 mg/kg/min) was similar in S-treated HV and S or IL treated sham-operated rats. Importantly, IL increased GP to 9.7±0.5 (P<0.001) in HV, recapitulating the effect ICVG. […]

Assay [5] addresses T1, hypothalamic CPT1. In words: ICV CPTi with or without glybenclamide or liver-selective vagotomy, pancreatic/insulin clamp (Example 4). The assay is classed as in vivo. Also on record: from tissue; host or cells: hypothalamus of living S-D rats. Particulars: ICV GLY in CON-infused rats (CON-GLY); not shown. The text has this: Decreasing Hypothalamic Lipid Oxidation Inhibits Endogenous Glucose Production (GP) via stimulation of K-channels (KATP) and Vagus Nerve. Administration either of the long-chain fatty acid (LCFA) oleic acid (OA) or of inhibitors of CPT-1 activity (CPT1) in the third cerebral ventricle (ICV) inhibits GP. Here, we hypothesize that inhibition of hypothalamic lipid oxidation with CPTi decreases GP via central activation of ATP-dependent potassium channels (KATP) leading to increased vagal input to the liver. […] All rats also received an IV infusion of [3-^3H]-glucose for the last 4 hr of ICV infusion and pancreatic/insulin clamp (insulin 1 mU/kg/min; somatostatin […]) during the last 2 hr of each study. In the presence of basal insulin levels, glucose infusion (GIR) was required to prevent hypoglycemia in the CPTi (4.9±1.0 mg/kg/min), but not in the CON (2.1±0.4 mg/kg/min) and CPTi-GLY (1.4±0.5 mg/kg/min) groups. […] To investigate whether this neural pathway acts via the hepatic branch of the vagus nerve, ICV CPTi or CON infusions were also performed in rats receiving liver-selective vagotomy (LV) or sham-operation (SH). GIR was markedly higher in CPTi-SH (4.7±1.3 mg/kg/min) compared with both CON-SH (1.3±0.4 mg/kg/min) and CPTi-LV (0.8±0.5 mg/kg/min). […]

SMILES strings stand for the structures.

With `CCCCCCCC(=O)O` [octanoic acid], the “suppressive effects of ICV oleic acid on food intake and on GP, with equimolar administration” value in assay [1] is given as “not replicated”.
In the case of `CCCCCCCCCCCCCCNC(=O)N[C@@H](CC(=O)[O-])C[N+](C)(C)C` [ST1340, (S)-N-(tetradecylcarbamoyl)-aminocarnitine], the “effect on food intake / feeding behavior” value in assay [2] was “failed to modify feeding behavior”. For the same compound, in assay [3] (Basal), the “Body wt.” value is 307 ± 6 g, the “FFA” value is reported as 0.4 ± 0.1 mM, the “Glucose” value is given as 8.0 ± 1.0 mM and the “Insulin” value came out at 1.4 ± 0.2 ng/mL. In assay [3] (Basal), the “Leptin” value came to 0.9 ± 0.2 ng/mL and the “Food Intake” value was 22 ± 3 g. In assay [3] (Clamp, steady-state), the “FFA” value was 0.4 ± 0.1 mM, the “Glucose” value was determined as 8.2 ± 0.9 mM and the “Insulin (iU/ml)” value worked out at 25 ± 4. For the same compound, in assay [3] (pancreatic-insulin clamp, ~basal insulin, ICV infusion), the “rate of glucose infusion (GIR) required to maintain euglycemia” value is reported as about 0.8 mg/kg/min.
As for `CCCCCCCCCCCCCCC1(C(=O)O)CO1` (stereo not shown) [TDGA, 2-tetradecylglydate], in assay [3] (Basal), the “Body wt.” value worked out at 319 ± 10 g, the “FFA” value came to 0.5 ± 0.1 mM, the “Glucose” value was found to be 8.2 ± 0.8 mM and the “Insulin” value came out at 1.9 ± 0.1 ng/mL. In addition, in assay [3] (Basal), the “Leptin” value worked out at 1.7 ± 0.1 ng/mL and the “Food Intake” value is on record as 25 ± 2 g. In assay [3] (Clamp, steady-state), the “FFA” value is listed as 0.5 ± 0.1 mM, the “Glucose” value is 8.1 ± 0.5 mM and the “Insulin (iU/ml)” value stood at 25 ± 3. For the same compound, the “decrease in glucose production (GP)” value in assay [3] (basal and equal insulin levels (~20 μU/ml), ICV) is given as 47±6%. Besides, the “glucose production (GP) during pancreatic clamp vs ICV vehicle controls” value in assay [3] (~basal insulin concentrations, p<0.01) is reported as “markedly inhibited GP”.
Consider `COc1ccc(Cl)cc1C(=O)NCCc1ccc(S(=O)(=O)NC(=O)NC2CCCCC2)cc1` [GLY, glybenclamide], for which the “GP during the clamp period” value in assay [4] is listed as about 6 mg/kg.min. Besides, the GP result in assay [5] is reported as “did not alter”.

The record behind these values is patent publication US7705016B2, “Regulation of food intake by modulation of long-chain fatty acyl-CoA levels in the hypothalamus” (Albert Einstein College of Medicine of Yeshiva University, priority 2003, dated 2010).
